From PubChem BioAssay AID248 (DTP/NCI, 2004)
Toxic doses and inconclusive results are not listed. Rule as the data show it: active = T/C of 150% or more; inactive = T/C below 125%.

Test system: L1210 leukemia ip in BDF1 mice, survival T/C
Test: NCI In Vivo Anticancer Drug Screen. Data for tumor model L1210 Leukemia (intraperitoneal) in B6D2F1 (BDF1) mice
Settings: endpoint: mean survival time, higher = longer survival
How it was run: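 Read-out is survival time, reported as the treated-group measurement over the vehicle-control measurement.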

[1] = dose: 100.0 mg/kg/injection, schedule: Q01DX001 (ip), vehicle: saline
[2] = dose: 200.0 mg/kg/injection, schedule: Q01DX001 (ip), vehicle: saline
[3] = dose: 400.0 mg/kg/injection, schedule: Q01DX001 (ip), vehicle: saline
[4] = dose: 100.0 mg/kg/injection, schedule: Q01DX009 (ip), vehicle: saline with Tween-80
[5] = dose: 100.0 mg/kg/injection, schedule: Q04DX003 (ip), vehicle: saline with Tween-80
[6] = dose: 200.0 mg/kg/injection, schedule: Q01DX009 (ip), vehicle: saline with Tween-80
[7] = dose: 200.0 mg/kg/injection, schedule: Q04DX003 (ip), vehicle: saline with Tween-80
[8] = dose: 400.0 mg/kg/injection, schedule: Q04DX003 (ip), vehicle: saline with Tween-80
[9] = dose: 100.0 mg/kg/injection, schedule: Q04DX003 (ip), vehicle: Klucel (hydroxypropylcellulose) (HPC)
[10] = dose: 200.0 mg/kg/injection, schedule: Q04DX003 (ip), vehicle: Klucel (hydroxypropylcellulose) (HPC)
[11] = dose: 400.0 mg/kg/injection, schedule: Q04DX003 (ip), vehicle: Klucel (hydroxypropylcellulose) (HPC)
[12] = dose: 25.0 mg/kg/injection, schedule: Q04DX003 (ip), vehicle: saline
[13] = dose: 50.0 mg/kg/injection, schedule: Q04DX003 (ip), vehicle: saline
[14] = dose: 100.0 mg/kg/injection, schedule: Q04DX003 (ip), vehicle: saline
[15] = dose: 100.0 mg/kg/injection, schedule: Q01DX001 (ip), vehicle: Klucel (hydroxypropylcellulose) (HPC)
[16] = dose: 200.0 mg/kg/injection, schedule: Q01DX001 (ip), vehicle: Klucel (hydroxypropylcellulose) (HPC)

Measured: T/C

CN(C)CCNC(=O)CN
inactive: [1] 102 % of control | [2] 107 % of control | [3] 107 % of control

O=C(O)C1CC=CCC1c1ccccc1 (stereo not given)
inactive: dose: 100.0 mg/kg/injection, schedule: Q04DX003 (ip), vehicle: other 96 % of control | dose: 200.0 mg/kg/injection, schedule: Q04DX003 (ip), vehicle: other 96 % of control | dose: 400.0 mg/kg/injection, schedule: Q04DX003 (ip), vehicle: other 101 % of control

O=C(N/N=C/c1ccc(-c2ccccc2)cc1)Nc1ccccc1
inactive: [4] 92 % of control | [5] 92 % of control | [6] 96 % of control | [7] 100 % of control | [8] 93 % of control

CNC(=S)N/N=C(\C=N\NC(=S)NC)c1ccccc1
inactive: dose: 50.0 micrograms/kg/injection, schedule: Q01DX009 (ip), vehicle: carboxymethylcellulose (CMC) 88 % of control

CC(=O)OC1CCC2(COS(=O)(=O)c3ccc(C)cc3)C(=CCC3C2CCC2(C)C(C(C)CCCC(C)C)CCC32)C1 (stereo not given)
inactive: dose: 100.0 mg/kg/injection, schedule: Q04DX002 (ip), vehicle: steriod suspending solution 101 % of control | dose: 200.0 mg/kg/injection, schedule: Q04DX002 (ip), vehicle: steriod suspending solution 104 % of control | dose: 400.0 mg/kg/injection, schedule: Q04DX002 (ip), vehicle: steriod suspending solution 96 % of control

CC(C)Cc1ccc(C(C)C(=O)O)cc1 (stereo not given)
inactive: [1] 100 % of control | [2] 92 % of control

C=CCC(=O)O
inactive: dose: 83.0 mg/kg/injection, schedule: Q01DX Z (ip), vehicle: saline 96 % of control | dose: 125.0 mg/kg/injection, schedule: Q01DX Z (ip), vehicle: saline 90 % of control

CNC(=O)Nc1ccc(C)c(Cl)c1
inactive: dose: 100.0 mg/kg/injection, schedule: Q01DX009 (ip), vehicle: Klucel (hydroxypropylcellulose) (HPC) 100 % of control | [9] 102 % of control | dose: 200.0 mg/kg/injection, schedule: Q01DX009 (ip), vehicle: Klucel (hydroxypropylcellulose) (HPC) 90 % of control | [10] 102 % of control | dose: 400.0 mg/kg/injection, schedule: Q01DX009 (ip), vehicle: Klucel (hydroxypropylcellulose) (HPC) 106 % of control | [11] 104 % of control

Nc1ncnc2c1ncn2C1OCC(CO)C1O (stereo not given)
inactive: dose: 33.0 mg/kg/injection, schedule: Q01DX001 (ip), vehicle: carboxymethylcellulose (CMC) 97 % of control | dose: 66.5 mg/kg/injection, schedule: Q01DX001 (ip), vehicle: carboxymethylcellulose (CMC) 108 % of control | [1] 107 % of control | dose: 133.0 mg/kg/injection, schedule: Q01DX001 (ip), vehicle: carboxymethylcellulose (CMC) 97 % of control | [2] 101 % of control | [3] 107 % of control

NC(=O)c1c([N+](=O)[O-])ncn1C1OC(CO)C(O)C1O (stereo not given)
inactive: [1] 98 % of control | [2] 102 % of control | [3] 96 % of control

Cc1c(O)c2ccccc2[nH]c1=O
inactive: dose: 100.0 mg/kg/injection, schedule: Q04DX002 (ip), vehicle: saline with Tween-80 97 % of control | dose: 200.0 mg/kg/injection, schedule: Q04DX002 (ip), vehicle: saline with Tween-80 103 % of control | dose: 400.0 mg/kg/injection, schedule: Q04DX002 (ip), vehicle: saline with Tween-80 106 % of control

CC(c1ccccc1)[As](C)(=O)O (stereo not given)
inactive: [12] 102 % of control | [13] 100 % of control | [14] 122 % of control

CCCC1(C)NC(=O)NC1=O (stereo not given)
inactive: [4] 97 % of control | [5] 110 % of control | [6] 98 % of control | [7] 104 % of control | dose: 400.0 mg/kg/injection, schedule: Q01DX009 (ip), vehicle: saline with Tween-80 93 % of control | [8] 102 % of control

CCOC(=O)/C=C/c1nc(N)[nH]c(=O)c1CCCCc1ccccc1
inactive: dose: 50.0 mg/kg/injection, schedule: Q01DX001 (ip), vehicle: Klucel (hydroxypropylcellulose) (HPC) 122 % of control | [15] 119 % of control | [16] 111 % of control

CN(C)CC(=O)CC12CC3CC(CC(C3)C1)C2
inactive: dose: 100.0 mg/kg/injection, schedule: Q04DX002 (ip), vehicle: saline 94 % of control | dose: 200.0 mg/kg/injection, schedule: Q04DX002 (ip), vehicle: saline 100 % of control | dose: 400.0 mg/kg/injection, schedule: Q04DX002 (ip), vehicle: saline 89 % of control

COC1OC(CN(CCO)CCO)C2OC(C)(C)OC12 (stereo not given)
inactive: dose: 12.5 mg/kg/injection, schedule: Q04DX003 (ip), vehicle: saline 97 % of control | dose: 25.0 mg/kg/injection, schedule: Q01DX009 (ip), vehicle: saline 98 % of control | [12] 89 % of control | dose: 50.0 mg/kg/injection, schedule: Q01DX009 (ip), vehicle: saline 94 % of control | [13] 97 % of control | dose: 100.0 mg/kg/injection, schedule: Q01DX009 (ip), vehicle: saline 89 % of control | [14] 94 % of control | dose: 335.0 mg/kg/injection, schedule: Q01DX009 (ip), vehicle: saline 101 % of control

c1ccc([C@H]2O[C@@H]2c2ccccc2)cc1
inactive: dose: 12.5 mg/kg/injection, schedule: Q01DX009 (ip), vehicle: saline with Tween-80 91 % of control | dose: 12.5 mg/kg/injection, schedule: Q04DX003 (ip), vehicle: saline with Tween-80 96 % of control | dose: 25.0 mg/kg/injection, schedule: Q01DX009 (ip), vehicle: saline with Tween-80 96 % of control | dose: 25.0 mg/kg/injection, schedule: Q04DX003 (ip), vehicle: saline with Tween-80 93 % of control | dose: 50.0 mg/kg/injection, schedule: Q01DX009 (ip), vehicle: saline with Tween-80 94 % of control | dose: 50.0 mg/kg/injection, schedule: Q04DX003 (ip), vehicle: saline with Tween-80 96 % of control | [15] 97 % of control | [9] 92 % of control | [16] 101 % of control | [10] 101 % of control | dose: 400.0 mg/kg/injection, schedule: Q01DX001 (ip), vehicle: Klucel (hydroxypropylcellulose) (HPC) 103 % of control | [11] 97 % of control

O=P(O)(O)c1ccc(N=Nc2ccc(P(=O)(O)O)cc2)cc1
inactive: [14] 94 % of control | dose: 200.0 mg/kg/injection, schedule: Q04DX003 (ip), vehicle: saline 107 % of control | dose: 400.0 mg/kg/injection, schedule: Q04DX003 (ip), vehicle: saline 97 % of control

CN(C)c1ccc(C=NCCCNC2CCCCC2)cc1
inactive: dose: 25.0 mg/kg/injection, schedule: Q04DX003 (ip), vehicle: other 94 % of control | dose: 50.0 mg/kg/injection, schedule: Q04DX003 (ip), vehicle: other 102 % of control | [1] 88 % of control

CCN1c2ccccc2Sc2ccccc21
inactive: dose: 50.0 mg/kg/injection, schedule: Q01DX001 (ip), vehicle: carboxymethylcellulose (CMC) 98 % of control | dose: 100.0 mg/kg/injection, schedule: Q01DX001 (ip), vehicle: carboxymethylcellulose (CMC) 98 % of control | [5] 92 % of control | dose: 200.0 mg/kg/injection, schedule: Q01DX001 (ip), vehicle: carboxymethylcellulose (CMC) 102 % of control | [7] 97 % of control | dose: 400.0 mg/kg/injection, schedule: Q01DX001 (ip), vehicle: carboxymethylcellulose (CMC) 98 % of control | [8] 100 % of control
